# According to US6737383B1, “Herbicidal oxadiazolidines” (priority 1999, dated 2004):
# Key:
# [1] = tested on: crabgrass; assay: Test B pre/postemergence crabgrass; format: in vivo, Digitaria sanguinalis
# Summary of the method: (§1)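 Test chemicals in a non-phytotoxic solvent mixture with surfactant were sprayed preemergence onto planted seeds and postemergence onto plants 2 to 18 cm tall (1- to 4-leaf stage). After twelve to sixteen days in a greenhouse, injury was visually rated against untreated controls from 0 (no effect) to 10 (complete control).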
# [2] = tested on: velvetleaf; assay: Test B pre/postemergence velvetleaf; format: in vivo, Abutilon theophrasti
# Summary of the method: as §1
# [3] = tested on: bamyardgrass; assay: Test B flood test barnyardgrass; format: in vivo, Echinochloa crus-galli
# Summary of the method: (§2)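 Plants were grown to the 2-leaf stage before treatment with test chemical, then held in a greenhouse for twelve to sixteen days. Injury was visually rated against untreated controls on a 0–10 scale, where 0 is no effect and 10 is complete control.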
# [4] = tested on: rice; assay: Test B flood test rice; format: in vivo, Oryza sativa
# Summary of the method: as §2
# [5] = tested on: pigweed; assay: Test B pre/postemergence pigweed; format: in vivo, Amaranthus retroflexus
# Summary of the method: as §1
# [6] = tested on: duck salad; assay: Test B flood test duck salad; format: in vivo, Heteranthera limosa
# Summary of the method: as §2
# [7] = tested on: corn; assay: Test B pre/postemergence corn; format: in vivo, Zea mays
# Summary of the method: as §1
# [8] = tested on: sugar beet; assay: Test B pre/postemergence sugar beet; format: in vivo, Beta vulgaris
# Summary of the method: as §1
# [9] = tested on: giant foxtail; assay: Test B pre/postemergence giant foxtail; format: in vivo, Setaria faberii
# Summary of the method: as §1
# [10] = tested on: wild oat; assay: Test B pre/postemergence wild oat; format: in vivo, Avena fatua
# Summary of the method: as §1
# [11] = tested on: cocklebur; assay: Test B pre/postemergence cocklebur; format: in vivo, Xanthium strumarium
# Summary of the method: as §1
# [12] = tested on: soybean; assay: Test B pre/postemergence soybean; format: in vivo, Glycine max
# Summary of the method: as §1
# [13] = tested on: purple nutsedge; assay: Test B pre/postemergence purple nutsedge; format: in vivo, Cyperus rotundus
# Summary of the method: as §1
# [14] = tested on: smallflower flatsedge; assay: Test B flood test smallflower flatsedge; format: in vivo, Cyperus difformis
# Summary of the method: as §2
# [15] = tested on: wheat; assay: Test B pre/postemergence wheat; format: in vivo, Triticum aestivum
# Summary of the method: as §1
# [16] = tested on: rape; assay: Test B pre/postemergence rape; format: in vivo, Brassica napus
# Summary of the method: as §1
# [17] = tested on: morningglory; assay: Test B pre/postemergence morningglory; format: in vivo, Ipomoea hederacea
# Summary of the method: as §1
# [18] = tested on: bedstraw; assay: Test B pre/postemergence bedstraw; format: in vivo, Galium aparine; details: Postemergence
# Summary of the method: as §1
# [19] = tested on: surinam grass; assay: Test B pre/postemergence surinam grass; format: in vivo, Brachiaria decumbens
# Summary of the method: as §1
# [20] = tested on: blackgrass; assay: Test B pre/postemergence blackgrass; format: in vivo, Alopecurus myosuroides
# Summary of the method: as §1
# [21] = Postemergence, Rate 62 g/ha, scale 0 to 10, 0 is no effect, 10 is complete control
# [22] = Postemergence, Rate 125 g/ha, scale of 0 to 10 where 0 is no effect and 10 is complete control
# [23] = Postemergence, Rate 250 g/ha, scale of 0 to 10, 0 is no effect, 10 is complete control
# [24] = Postemergence, Rate 500 g/ha, scale of 0 to 10 where 0 is no effect and 10 is complete control
# [25] = Preemergence, Rate 62 g/ha, scale 0 to 10 (0 no effect, 10 complete control)
# [26] = Preemergence, Rate 125 g/ha, scale of 0 to 10 where 0 is no effect and 10 is complete control
# [27] = Preemergence, Rate 500 g/ha, scale of 0 to 10 where 0 is no effect and 10 is complete control
# [28] = Rate 62 g/ha, flood test species, Pre-emergence, visual evaluation after twelve to sixteen days
# [29] = Rate 125 g/ha, under heading Pre-emergence, flood test species, visual evaluation after twelve to sixteen days
# [30] = Rate 250 g/ha, Pre-emergence (flood test species), scale 0 to 10, 0 is no effect, 10 is complete control
# [31] = Rate 500 g/ha, Pre-emergence section of Table B, 0 to 10 scale (0 no effect, 10 complete control)
structure (smiles),measurement,setting,value
CCC(C)n1c(=O)on(C(=O)N(c2ccc(F)cc2)C(C)C)c1=O (centres unmarked) [Compound 613],"Plant response rating, Crabgrass",[1]; [21],8
same,"Plant response rating, Crabgrass",[1]; [22],9
same,Crabgrass plant response rating,[1]; [23],9
same,"Plant response rating, Crabgrass",[1]; [24],9
same,Crabgrass plant response rating,[1]; [25],9
same,Crabgrass plant response rating,[1]; [26],10
same,"Plant response rating, Crabgrass",[1]; [27],10
same,"Plant response rating, Velvetleaf",[2]; [21],0
same,"Plant response rating, Velvetleaf",[2]; [22],4
same,Velvetleaf plant response rating,[2]; [23],5
same,"Plant response rating, Velvetleaf",[2]; [24],8
same,Velvetleaf plant response rating,[2]; [25],7
same,Velvetleaf plant response rating,[2]; [26],7
same,"Plant response rating, Velvetleaf",[2]; [27],8
same,"Plant response rating, Barnyardgrass (0 to 10 scale, 0 is no effect, 10 is complete control)",[3]; [28],0
same,"Barnyardgrass plant response rating (0 to 10 scale, 0 is no effect, 10 is complete control)",[3]; [29],0
same,Barnyardgrass plant response rating,[3]; [30],0
same,Barnyardgrass plant response rating,[3]; [31],0
same,"Plant response rating, Rice (0 to 10 scale, 0 is no effect, 10 is complete control)",[4]; [28],0
same,"Rice plant response rating (0 to 10 scale, 0 is no effect, 10 is complete control)",[4]; [29],0
same,Rice plant response rating,[4]; [30],0
same,Rice plant response rating,[4]; [31],0
same,"Plant response rating, Redroot pigweed",[5]; [21],1
same,"Plant response rating, Redroot pigweed",[5]; [22],2
same,Redroot pigweed plant response rating,[5]; [23],7
same,"Plant response rating, Redroot pigweed",[5]; [24],8
same,Redroot pigweed plant response rating,[5]; [25],10
same,Redroot pigweed plant response rating,[5]; [26],10
same,"Plant response rating, Redroot pigweed",[5]; [27],10
same,"Plant response rating, Ducksalad (0 to 10 scale, 0 is no effect, 10 is complete control)",[6]; [28],0
same,"Ducksalad plant response rating (0 to 10 scale, 0 is no effect, 10 is complete control)",[6]; [29],0
same,Ducksalad plant response rating,[6]; [30],0
same,Ducksalad plant response rating,[6]; [31],0
same,"Plant response rating, Corn",[7]; [21],0
same,"Plant response rating, Corn",[7]; [22],0
same,Corn plant response rating,[7]; [23],0
same,"Plant response rating, Corn",[7]; [24],0
same,Corn plant response rating,[7]; [25],2
same,Corn plant response rating,[7]; [26],3
same,Corn plant response rating (0 to 10 scale),"[7]; Preemergence, Rate 250 g/ha",9
same,"Plant response rating, Corn",[7]; [27],9
same,"Plant response rating, Sugarbeets",[8]; [21],0
same,"Plant response rating, Sugarbeets",[8]; [22],0
same,Sugarbeets plant response rating,[8]; [23],0
same,"Plant response rating, Sugarbeets",[8]; [24],0
same,Sugarbeets plant response rating,[8]; [25],3
same,Sugarbeets plant response rating,[8]; [26],5
same,"Plant response rating, Sugarbeets",[8]; [27],10
same,"Plant response rating, Giant foxtail",[9]; [21],5
same,"Plant response rating, Giant foxtail",[9]; [22],9
same,Giant foxtail plant response rating,[9]; [23],9
same,"Plant response rating, Giant foxtail",[9]; [24],9
same,Giant foxtail plant response rating,[9]; [25],10
same,Giant foxtail plant response rating,[9]; [26],10
same,"Plant response rating, Giant foxtail",[9]; [27],10
same,"Plant response rating, Wild oats",[10]; [21],1
same,"Plant response rating, Wild oats",[10]; [22],7
same,Wild oats plant response rating,[10]; [23],9
same,"Plant response rating, Wild oats",[10]; [24],9
same,Wild oats plant response rating,[10]; [25],7
same,Wild oats plant response rating,[10]; [26],9
same,"Plant response rating, Wild oats",[10]; [27],10
same,"Plant response rating, Cocklebur",[11]; [21],0
same,"Plant response rating, Cocklebur",[11]; [22],2
same,Cocklebur plant response rating,[11]; [23],2
same,"Plant response rating, Cocklebur",[11]; [24],2
same,Cocklebur plant response rating,[11]; [25],0
same,Cocklebur plant response rating,[11]; [26],0
same,Cocklebur plant response rating (0 to 10 scale),"[11]; Preemergence, Rate 250 g/ha",2
same,"Plant response rating, Cocklebur",[11]; [27],8
same,"Plant response rating, Soybean",[12]; [21],4
same,"Plant response rating, Soybean",[12]; [22],5
same,Soybean plant response rating,[12]; [23],6
same,"Plant response rating, Soybean",[12]; [24],8
same,Soybean plant response rating,[12]; [25],0
same,Soybean plant response rating,[12]; [26],0
same,"Plant response rating, Soybean",[12]; [27],2
same,"Plant response rating, Nutsedge",[13]; [21],0
same,"Plant response rating, Nutsedge",[13]; [22],2
same,Nutsedge plant response rating,[13]; [23],2
same,"Plant response rating, Nutsedge",[13]; [24],4
same,Nutsedge plant response rating,[13]; [25],0
same,Nutsedge plant response rating,[13]; [26],0
same,"Plant response rating, Nutsedge",[13]; [27],2
same,"Plant response rating, S. Flatsedge (0 to 10 scale, 0 is no effect, 10 is complete control)",[14]; [28],0
same,"S. Flatsedge plant response rating (0 to 10 scale, 0 is no effect, 10 is complete control)",[14]; [29],0
same,S. Flatsedge plant response rating,[14]; [30],0
same,S. Flatsedge plant response rating,[14]; [31],0
same,"Plant response rating, Wheat",[15]; [21],0
same,"Plant response rating, Wheat",[15]; [22],0
same,Wheat plant response rating,[15]; [23],2
same,"Plant response rating, Wheat",[15]; [24],6
same,Wheat plant response rating,[15]; [25],0
same,Wheat plant response rating,[15]; [26],3
same,"Plant response rating, Wheat",[15]; [27],6
same,"Plant response rating, Rape",[16]; [21],0
same,"Plant response rating, Rape",[16]; [22],0
same,Rape plant response rating,[16]; [23],3
same,"Plant response rating, Rape",[16]; [24],7
same,Rape plant response rating,[16]; [25],7
same,Rape plant response rating,[16]; [26],9
same,"Plant response rating, Rape",[16]; [27],10
same,"Plant response rating, Morningglory",[17]; [21],7
same,"Plant response rating, Morningglory",[17]; [22],7
same,Morningglory plant response rating,[17]; [23],8
same,"Plant response rating, Morningglory",[17]; [24],8
same,Morningglory plant response rating,[17]; [25],0
same,Morningglory plant response rating,[17]; [26],0
same,"Plant response rating, Morningglory",[17]; [27],10
same,"Plant response rating, Bedstraw","[18]; Rate 62 g/ha, scale 0 to 10, 0 is no effect, 10 is complete control",8
same,Bedstraw plant response rating,"[18]; Rate 250 g/ha, scale of 0 to 10, 0 is no effect, 10 is complete control",8
same,"Plant response rating, Bedstraw","[18]; Rate 500 g/ha, scale of 0 to 10 where 0 is no effect and 10 is complete control",9
same,"Plant response rating, B. signalgrass",[19]; [21],1
same,"Plant response rating, B. signalgrass",[19]; [22],3
same,B. signalgrass plant response rating,[19]; [23],6
same,"Plant response rating, B. signalgrass",[19]; [24],8
same,B. signalgrass plant response rating,[19]; [25],7
same,B. signalgrass plant response rating,[19]; [26],8
same,"B. signalgrass plant response rating (0 to 10 scale, 0 is no effect, 10 is complete control)","[19]; Preemergence, Rate 250 g/ha",9
same,B. signalgrass plant response rating,[19]; [27],9
same,"Plant response rating, Blackgrass",[20]; [21],8
same,"Plant response rating, Blackgrass",[20]; [22],9
same,Blackgrass plant response rating,[20]; [23],9
same,"Plant response rating, Blackgrass",[20]; [24],9
same,Blackgrass plant response rating,[20]; [25],8
same,Blackgrass plant response rating,[20]; [26],8
same,Blackgrass plant response rating (0 to 10 scale),"[20]; Preemergence, Rate 250 g/ha",10
same,Blackgrass plant response rating,[20]; [27],10
